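How tested: cells in 96-well plates exposed to compound for 48 hours at five concentrations. TGI: total growth inhibition.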
Experiments:
Experiment in all cases: NCI anticancer screen, dose series, 48 h
HT29 colon = system: HT29 colon
LOX IMVI melanoma = system: LOX IMVI melanoma
A549 NSCLC = system: A549 NSCLC
UACC-257 melanoma = system: UACC-257 melanoma
SF-295 CNS = system: SF-295 CNS
M14 melanoma = system: M14 melanoma
MOLT-4 leukemia = system: MOLT-4 leukemia
SN12C renal = system: SN12C renal
BT-549 breast = system: BT-549 breast
OVCAR-8 ovarian = system: OVCAR-8 ovarian
OVCAR-3 ovarian = system: OVCAR-3 ovarian
ACHN renal = system: ACHN renal
CAKI-1 renal = system: CAKI-1 renal
SNB-75 CNS = system: SNB-75 CNS
DU-145 prostate = system: DU-145 prostate
MALME-3M melanoma = system: MALME-3M melanoma
OVCAR-4 ovarian = system: OVCAR-4 ovarian
MDA-MB-435 = system: MDA-MB-435
NCI-H460 lung = system: NCI-H460 lung
UO-31 renal = system: UO-31 renal
EKVX NSCLC = system: EKVX NSCLC
HOP-62 NSCLC = system: HOP-62 NSCLC
TK-10 renal = system: TK-10 renal
SK-MEL-2 melanoma = system: SK-MEL-2 melanoma
NCI-H522 lung = system: NCI-H522 lung
NCI-H23 lung = system: NCI-H23 lung
SK-OV-3 ovarian = system: SK-OV-3 ovarian
SNB-19 CNS = system: SNB-19 CNS
MCF7 breast = system: MCF7 breast
CCRF-CEM leukemia = system: CCRF-CEM leukemia
RPMI-8226 leukemia = system: RPMI-8226 leukemia
HS 578T breast = system: HS 578T breast
NCI-H226 lung = system: NCI-H226 lung
HCT-116 colon = system: HCT-116 colon
SK-MEL-28 melanoma = system: SK-MEL-28 melanoma
A498 renal = system: A498 renal
COLO 205 colon = system: COLO 205 colon
SK-MEL-5 melanoma = system: SK-MEL-5 melanoma
HOP-92 NSCLC = system: HOP-92 NSCLC
PC-3 prostate = system: PC-3 prostate
786-0 renal = system: 786-0 renal
IGROV1 ovarian = system: IGROV1 ovarian
SW-620 colon = system: SW-620 colon
SF-539 CNS = system: SF-539 CNS
UACC-62 melanoma = system: UACC-62 melanoma
HL-60(TB) leukemia = system: HL-60(TB) leukemia
KM12 colon = system: KM12 colon
SF-268 CNS = system: SF-268 CNS
OVCAR-5 ovarian = system: OVCAR-5 ovarian
SR leukemia = system: SR leukemia
RXF 393 renal = system: RXF 393 renal
T-47D breast = system: T-47D breast
U251 CNS = system: U251 CNS
HCT-15 colon = system: HCT-15 colon
K-562 leukemia = system: K-562 leukemia
NCI/ADR-RES ovarian = system: NCI/ADR-RES ovarian
HCC-2998 colon = system: HCC-2998 colon
MDA-N = system: MDA-N

With `NC12Oc3cc(O)cc(O)c3C1(c1ccc(Cl)cc1)c1c(O)cc(O)cc1O2` (stereo not drawn) the TGI (HT29 colon) was > 100 µM, the TGI (LOX IMVI melanoma) was > 100 µM and the TGI (A549 NSCLC) was > 100 µM. The TGI (UACC-257 melanoma) was > 100 µM, the TGI (SF-295 CNS) was > 100 µM and the TGI (M14 melanoma) was > 100 µM. The TGI (MOLT-4 leukemia) was > 100 µM, the TGI (SN12C renal) was > 100 µM and the TGI (BT-549 breast) was > 100 µM. For the same compound, the TGI (OVCAR-8 ovarian) was > 100 µM, the TGI (OVCAR-3 ovarian) was > 100 µM and the TGI (ACHN renal) was > 100 µM. For the same compound, the TGI (CAKI-1 renal) was > 100 µM, the TGI (SNB-75 CNS) was > 100 µM and the TGI (DU-145 prostate) was > 100 µM. For the same compound, the TGI (MALME-3M melanoma) was > 100 µM, the TGI (OVCAR-4 ovarian) was > 100 µM and the TGI (MDA-MB-435) was > 100 µM. For the same compound, the TGI (NCI-H460 lung) was > 100 µM, the TGI (UO-31 renal) was > 100 µM and the TGI (EKVX NSCLC) was > 100 µM. The TGI (HOP-62 NSCLC) was > 100 µM, the TGI (TK-10 renal) was > 100 µM and the TGI (SK-MEL-2 melanoma) was > 100 µM. The TGI (NCI-H522 lung) was 92.9 µM, the TGI (NCI-H23 lung) was > 100 µM and the TGI (SK-OV-3 ovarian) was > 100 µM. The TGI (SNB-19 CNS) was > 100 µM, the TGI (MCF7 breast) was > 100 µM and the TGI (CCRF-CEM leukemia) was > 100 µM. For the same compound, the TGI (RPMI-8226 leukemia) was > 100 µM, the TGI (HS 578T breast) was > 100 µM and the TGI (NCI-H226 lung) was > 100 µM. The TGI (HCT-116 colon) was > 100 µM, the TGI (SK-MEL-28 melanoma) was > 100 µM and the TGI (A498 renal) was > 100 µM. The TGI (COLO 205 colon) was > 100 µM, the TGI (SK-MEL-5 melanoma) was > 100 µM and the TGI (HOP-92 NSCLC) was > 100 µM. For the same compound, the TGI (PC-3 prostate) was > 100 µM, the TGI (786-0 renal) was > 100 µM and the TGI (IGROV1 ovarian) was > 100 µM. For the same compound, the TGI (SW-620 colon) was > 100 µM, the TGI (SF-539 CNS) was > 100 µM and the TGI (UACC-62 melanoma) was > 100 µM. The TGI (HL-60(TB) leukemia) was > 100 µM, the TGI (KM12 colon) was > 100 µM and the TGI (SF-268 CNS) was > 100 µM. For the same compound, the TGI (OVCAR-5 ovarian) was > 100 µM, the TGI (SR leukemia) was > 100 µM and the TGI (RXF 393 renal) was > 100 µM. For the same compound, the TGI (T-47D breast) was > 100 µM, the TGI (U251 CNS) was > 100 µM and the TGI (HCT-15 colon) was > 100 µM. The TGI (K-562 leukemia) was > 100 µM, the TGI (NCI/ADR-RES ovarian) was > 100 µM and the TGI (HCC-2998 colon) was > 100 µM. For the same compound, the TGI (MDA-N) was > 100 µM.

— PubChem BioAssay (NCI)
